# Laboratory results: patent publication EP1401829B1, “NOVEL HETEROCYCLIC ANTIBACTERIAL COMPOUNDS” (Microbiotix, Inc., priority 2001, dated 2002)
# Columns and labels:
# MRSA1132 = assay: MIC against clinically relevant strains; format: cell-based; details: Staphylococcus aureus; methicillin resistant S. aureus strain
# Experimental: (§1) The following methods were used to characterize representative compounds. Minimal Inhibitory Concentration (MIC) determinations. MIC values were determined in 96 well plates, with bacterial growth monitored at OD 600 nm in 200µl following an initial bacterial seeding at approximately 1x10^5 colony forming units (CFU)/ml. Each drug is evaluated at five concentrations, with five data points at each dilution. MIC values (µg/ml) were determined against actively growing cultures in Heart-Brain Infusion (HBI) medium. Cell growth in cultures supplemented with a test compound was calculated as a percent of control at OD 600 nm after 16 to 18 hours at 37°C. This plate format conserves test compound and provides precise, quantitative data with low standard deviation determinations. Polymerase IIIC (Pol IIIC) assay. DNA polymerase activity (or inhibition thereof) was measured in a 96-well plate format. B. subtilis Pol IIIC was isolated as described by Hammond and Brown (Protein Expr. Purif., 3: 65-70 (1992)). Each 25 µl assay contained 30 mM Tris, pH 7.5, 10 mM magnesium acetate, 4 mM dithiothreitol, 20% glycerol, with 25 µM dATP, dCTP, dGTP and 10 µM dTTP (^3H-labelled at 1.44 Ci/mmole) and 0.4 mg/ml activated calf thymus DNA as substrates, as described previously (see Barnes et al, op. cit). Assays were initiated by the addition of 0.025 to 0.06 units of enzyme 1 unit is the amount required to incorporate 250 pmoles of [^3H] dTMP in a standard assay), incubated for 10 minutes at 30°C and terminated by the addition of 200 µl of cold 10% trichloroacetic acid (TCA),10 mM sodium pyrophosphate. Precipitated labeled DNA was collected on glass fiber filter plates, washed, dried, and counted in a liquid scintillation counter. Determination of Ki values. DNA polymerase activity was measured in a 96-well plate format in the absence of dGTP or dATP, depending on the structure of the test compound. Each 25 µl assay contained 30 mM Tris, pH 7.5, 10 mM magnesium acetate, 4 mM dithiothreitol, 20% glycerol, with 25 µM dATP, dCTP, and 10 µM dTTP (^3H-labelled at 1.44 Ci/mmole) and 0.4 mg/ml activated calf thymus DNA as substrates, as described previously. To each well were added 2 µl of compound solution to give final concentrations ranging from 20 - 0.027 µg/ml in the assay. Assays were initiated by the addition of 0.025 to 0.06 units of enzyme (1 unit is the amount required to incorporate 250 pmoles of [^3H] dTMP in a standard assay), incubated for 10 minutes at 30 °C and terminated by the addition of 200 µl of cold 10% trichloroacetic acid, 10 mM sodium pyrophosphate. Precipitated labeled DNA was collected on glass fiber filter plates, washed, dried, and counted in a liquid scintillation counter. Ki is the concentration of test compound that reduces the control polymerase IIIC activity by 50 percent.
# (§2) Compounds were also tested for antibacterial activity against certain clinically relevant strains, e.g., methicillin sensitive (MSSA) and methicillin resistant (MRSA) strains of Staphylococcus aureus.
# MRSA1094 = assay: MIC against clinically relevant strains; format: cell-based; details: Staphylococcus aureus; methicillin resistant S. aureus strain
# Experimental: as §1, §2
# MRSA 1123 = assay: MIC against clinically relevant strains; format: cell-based; details: Staphylococcus aureus, methicillin resistant S. aureus strain
# Experimental: as §1, §2
# E. fecalis = assay: Minimal Inhibitory Concentration (MIC) determination, 96 well plates; format: cell-based, Enterococcus fecalis; details: Enterococcus; HBI medium, 16 to 18 hours at 37°C; read-out: MIC (µg/ml) E. fecalis
# In short: (§3)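 Broth growth in Heart-Brain Infusion medium, seeded at about 1x10^5 CFU/ml, 16 to 18 hours at 37°C. Growth read at OD 600 nm as percent of untreated control; five concentrations per drug, five data points each, MIC reported in µg/ml.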
# E. fecium = assay: as above; format: cell-based, Enterococcus fecium; details: Enterococcus; HBI medium, 16 to 18 hours at 37°C; read-out: MIC (µg/ml) E. fecium
# In short: as §3
Compound,MIC (MRSA1132) [µg/mL],MIC (MRSA1094) [µg/mL],MIC (MRSA 1123) [µg/mL],MIC (E. fecalis) [µg/mL],MIC (E. fecium) [µg/mL]
"CCc1cc(Nc2cc(=O)n(CCCCN3CCN(c4cc5c(cc4F)c(=O)c(C(=O)O)cn5C4CC4)CC3)c(=O)[nH]2)ccc1C [Compound 2, 3-{4-[1-(1-cyclopropyl-3-carboxy-4-oxo-6-fluoro-7-quinolyl)-4-piperazinyl]butyl}-6-(3-ethyl-4-methylanilino)uracil]",0.625,0.625,0.625,1.25,1.25
"CCc1cc(Nc2cc(=O)n(CCCCN3CCN(c4cc5c(cc4F)c(=O)c(C(=O)O)cn5C4CC4)CC3)c(=O)[nH]2)ccc1C.CS(=O)(=O)O [Compound 10, 3-{4-[1-(1-cyclopropyl-3-carboxy-4-oxo-6-fluoro-7-quinolyl)-4-piperazinyl]butyl}-6-(3-ethyl-4-methylanilino)uracil methanesulfonate]",0.625,1.25,1.25,1.25,2.5
"CCc1cc(Nc2cc(=O)n(CCCCN3CCN(c4c(F)cc5c(=O)c(C(=O)O)cn(C6CC6)c5c4F)CC3C)c(=O)[nH]2)ccc1C (stereo not drawn) [Compound 70, 3-{4-[1-(1-cyclopropyl-3-carboxy-4-oxo-6,8-difluoro-7-quinolyl)-3-methyl-4-piperazinyl]butyl}-6-(3-ethyl-4-methylanilino)uracil]",0.31,0.94,0.94,0.95,1.25
